Measurements: US9120777B2, “Heterocyclic compound” (Takeda Pharmaceutical Company Limited, priority 2013, dated 2015)

How the values were obtained:
[1] = target: T1, human SSTR5 (Homo sapiens, UniProt P35346); assay: Evaluation of human SSTR5 antagonist activity using intracellular cAMP concentration as index; format: cell-based; conditions: 1 uM test compound; CHO (dhfr-) cells stably expressing human SSTR5; 0.1 nM somatostatin 28 and 0.3 uM forskolin; HTRF cAMP; read-out: Inhibition rate against SSTR5 at 1 uM
T1 construct: expressed in transfected cells
Method: Evaluation of Human SSTR5 Antagonist Activity Using Intracellular cAMP Concentration as Index
The intracellular cAMP concentration was measured using HTRF cAMP dynamic 2 kit (Cisbio Bioassays). Each test compound diluted with an assay buffer (HBSS (Invitrogen Corp.) containing 5 mM HEPES (pH 7.5) (Invitrogen Corp.), 0.1% fatty-acid free BSA (Sigma-Aldrich Corp.), and 500 u (“u” represents “micro”)M IBMX (Wako Pure Chemical Industries, Ltd.)) was added at a concentration of 2 uL/well to a 384-well white plate (Greiner Bio-One Co., Ltd.) to give the final concentration of 1 uM. A frozen stock of CHO (dhfr−) cells stably expressing the human SSTR5 gene (Accession No. NM_001053) was thawed in a thermostat bath of 37 C and suspended in a subculture medium (MEM alpha (Wako Pure Chemical Industries, Ltd.), 10% dialyzed serum (Gemini Bio-Products), and 50 ug/mL gentamicin (Invitrogen Corp.). After centrifugation of the cell suspension, the cells were resuspended in an assay buffer and added at a concentration of 2 uL/well (about 4,000 cells/well) to the plate. The compound and the cells were incubated for 15 minutes, and then, an assay buffer containing 0.1 nM (final concentration) somatostatin 28 (Toray Research Center) and 0.3 uM (final concentration) forskolin (Wako Pure Chemical Industries, Ltd.) was added thereto at a concentration of 2 uL/well, followed by incubation at room temperature for 30 minutes. cAMP-d2 and anti-cAMP-cryptate were each added thereto at a concentration of 3 uL/well. The plate was left standing at room temperature for 60 minutes. Then, the fluorescence resonance energy transfer (FRET) intensity was measured using Multi-label reader Envision (PerkinElmer). The FRET intensity of the wells supplemented with the test compound group was converted to a cAMP concentration using a calibration curve prepared from the FRET intensity of a well group containing an assay buffer supplemented with an arbitrary concentration of cAMP. The inhibitory activity of each compound was calculated according to the following expression: Inhibitory activity(%)=(C−B)/(A−B)×100 A: cAMP concentration calculated from the wells supplemented with 0.3 uM forskolin B: cAMP concentration calculated from the wells supplemented with 0.3 uM forskolin and 0.1 nM somatostatin 28 C: cAMP concentration calculated from the wells supplemented with 0.3 uM forskolin, 0.1 nM somatostatin 28, and 1 uM test compound

[2] = system: Female KK-Ay/Ta mice, a type 2 diabetes model; assay: Antidiabetic effect in mice (glycated hemoglobin after 2 weeks of treatment); format: in vivo; conditions: 1 mg/kg orally once a day for 2 weeks, n=8
Description: Antidiabetic Effect in Mice
Female KK-Ay/Ta mice (Clea Japan Inc.), a type 2 diabetes model, were used in this study. At the age of 7-week old, blood sample were collected from tail vein at 8:00 am, and animals were divided into separate groups (n=8) based on glycated hemoglobin (GHb), plasma glucose, insulin, triglyceride levels and body weight. Vehicle (0.5% (w/v) methylcellulose) or compounds (suspended in vehicle) were orally administered once a day for 2 weeks. After 2 weeks of treatment, GHb was determined by auto-analyzer HLC-723G8 (TOSOH, Japan).

T1 sequence (P35346 whole entry): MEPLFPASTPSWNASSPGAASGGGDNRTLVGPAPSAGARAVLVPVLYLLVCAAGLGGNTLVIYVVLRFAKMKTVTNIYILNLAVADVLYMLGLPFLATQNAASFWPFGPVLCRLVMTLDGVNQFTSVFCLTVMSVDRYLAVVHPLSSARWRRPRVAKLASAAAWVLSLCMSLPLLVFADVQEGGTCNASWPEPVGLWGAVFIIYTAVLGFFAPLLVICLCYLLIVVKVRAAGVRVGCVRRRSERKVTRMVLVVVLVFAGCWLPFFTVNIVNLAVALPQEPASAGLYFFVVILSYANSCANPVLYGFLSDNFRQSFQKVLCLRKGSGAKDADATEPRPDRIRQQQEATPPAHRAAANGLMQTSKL

| Compound | inhibition at 1 µM [1] | average of delta GHb (%) [2] |
| --- | --- | --- |
| CCOc1cc(C2CCC2)c(C2CC2)cc1CN1CCC(n2ccc(C(=O)O)cc2=O)CC1 [Example 1, 1-(1-(4-cyclobutyl-5-cyclopropyl-2-ethoxybenzyl)piperidin-4-yl)-2-oxo-1,2-dihydropyridine-4-carboxylic acid] | 84% | – |
| CC(C)Oc1nc(-c2ccc(F)cc2)c(C2CC2)cc1CN1CCC(n2ccc(C(=O)O)cc2=O)CC1 [Example 2, 1-(1-((5-cyclopropyl-6-(4-fluorophenyl)-2-isopropoxypyridin-3-yl)methyl)piperidin-4-yl)-2-oxo-1,2-dihydropyridine-4-carboxylic acid] | 134% | – |
| CC(C)Oc1cc(-c2ccc(F)cc2)c(C2CC2)cc1CN1CCC(n2ccc(C(=O)O)cc2=O)CC1 [Example 3, 1-(1-((2-cyclopropyl-4′-fluoro-5-isopropoxybiphenyl-4-yl)methyl)piperidin-4-yl)-2-oxo-1,2-dihydropyridine-4-carboxylic acid] | 116% | – |
| CC(C)Oc1cc(C2CC2)c(C2CC2)cc1CN1CCC(n2ccc(C(=O)O)cc2=O)CC1 [Example 4, 1-(1-(4,5-dicyclopropyl-2-isopropoxybenzyl)piperidin-4-yl)-2-oxo-1,2-dihydropyridine-4-carboxylic acid] | 120% | – |
| CC(C)Oc1c(CN2CCC(n3ccc(C(=O)O)cc3=O)CC2)cc(C2CC2)c(-c2ccc(F)cc2F)c1Cl [Example 5, 1-(1-((2-chloro-6-cyclopropyl-2′,4′-difluoro-3-isopropoxybiphenyl-4-yl)methyl)piperidin-4-yl)-2-oxo-1,2-dihydropyridine-4-carboxylic acid] | 88% | – |
| CCc1c(C(=O)O)ccn(C2CCN(Cc3cc(C4CC4)c(-c4ccc(F)cc4F)cc3OC(C)C)CC2)c1=O [Example 6, 1-(1-((2-cyclopropyl-2′,4′-difluoro-5-isopropoxybiphenyl-4-yl)methyl)piperidin-4-yl)-3-ethyl-2-oxo-1,2-dihydropyridine-4-carboxylic acid] | 94% | – |
| CCc1c(C(=O)O)ccn(C2CCN(Cc3cc(C4CC4)c(-c4ccc(F)cc4F)c(F)c3OC(C)C)CC2)c1=O [Example 7, 1-(1-((6-cyclopropyl-2,2′,4′-trifluoro-3-isopropoxybiphenyl-4-yl)methyl)piperidin-4-yl)-3-ethyl-2-oxo-1,2-dihydropyridine-4-carboxylic acid] | 124% | – |
| CCc1c(C(=O)O)ccn(C2CCN(Cc3cc(C4CC4)c(-c4ccc(F)cc4)c(F)c3OC(C)C)CC2)c1=O [Example 43, 1-(1-((6-cyclopropyl-2,4′-difluoro-3-isopropoxybiphenyl-4-yl)methyl)piperidin-4-yl)-3-ethyl-2-oxo-1,2-dihydropyridine-4-carboxylic acid] | 133% | – |
| CCOc1c(CN2CCC(n3ccc(C(=O)O)c(CC)c3=O)CC2)cc(C2CC2)c(-c2ccc(F)cc2F)c1F [Example 45, 1-(1-((6-cyclopropyl-3-ethoxy-2,2′,4′-trifluorobiphenyl-4-yl)methyl)piperidin-4-yl)-3-ethyl-2-oxo-1,2-dihydropyridine-4-carboxylic acid] | 98% | – |
| CCc1c(C(=O)O)ccn(C2CCN(Cc3cc(C4CC4)c(C4CC4)c(F)c3OC(C)C)CC2)c1=O [Example 47, 1-(1-(4,5-dicyclopropyl-3-fluoro-2-isopropoxybenzyl)piperidin-4-yl)-3-ethyl-2-oxo-1,2-dihydropyridine-4-carboxylic acid] | 111% | – |
| Cc1c(C(=O)O)ccn(C2CCN(Cc3cc(C4CC4)c(-c4ccc(F)cc4)c(F)c3OC(C)C)CC2)c1=O [Example 49, 1-(1-((6-Cyclopropyl-2,4′-difluoro-3-isopropoxybiphenyl-4-yl)methyl)piperidin-4-yl)-3-methyl-2-oxo-1,2-dihydropyridine-4-carboxylic acid] | – | −0.51% |
| CCc1c(C(=O)O)ccn(C2CCN(Cc3cc(C4CC4)c(-c4ccc(F)cc4)cc3OC(C)C)CC2)c1=O [Example 51, 1-(1-((2-cyclopropyl-4′-fluoro-5-isopropoxybiphenyl-4-yl)methyl)piperidin-4-yl)-3-ethyl-2-oxo-1,2-dihydropyridine-4-carboxylic acid] | 89% | – |
